Bridges are numbered along the chain shown (N, C = ends). Where no end group is shown, it is not given here. [ ]: non-standard residue; d: D form. Gly(S2) = not defined here

The source of these data is patent publication US6930088B2, “Conformationally constrained backbone cyclized somatostatin analogs” (Peptor Ltd., priority 1998, dated 2005).

The conditions of series [1]: rat, in vivo, iv, 6 mg/kg. The protocol:
PTR 3173 was tested in various species for its initial safety properties. Under the European Pharmacopoeia requirements for safety testing, it was declared a safe drug candidate at this stage of development.

A short description of another series: in vitro. To be noted: for remaining at 1 h / remaining at 3 h / remaining at 24 h: kidney or brush border membranes. On the procedure:
The assay was based on HPLC determination of peptide degradation as a function of time in renal homogenate at 37° C.

In a further series the target is T1, SSTR-5 (Homo sapiens, UniProt P35346).
T1 construct: expressed in transfected cells
As to the kind of experiment: Inhibition of 125I-Tyr11-SRIF binding to membrane preparations expressing SSTR-5. To be noted: SST-R5, read-out: Percent inhibition of SRIF-14 binding; for inhibition at 1 µM: 10^−6M; for inhibition at 0.1 µM: 10^−7M; for inhibition at 0.01 µM: 10^−8M. On the procedure: (§1) The receptor preparations used for these tests were either from the cloned human receptors selectively and stably expressed in Chinese Hamster Ovary (CHO) cells or from cell lines naturally expressing the SSTRs. […] The binding reactions were filtered, the filters were washed and the bound radioactivity was counted in gamma counter. Non specific binding was defined as the radioactivity remaining bound in the presence of 1 μM unlabeled SRIF-14.
(§2) In order to validate positive signals of the binding tests, and to eliminate non-specific signals, samples of irrelevant peptides, such as GnRH, that were synthesized and handled using the same procedures, were tested in the same assays as negative control samples. These samples had no binding activity in any of the assays. Results are shown below in Tables 5 and 6 and FIG. 1.

Another series concerns the target T2, SSTR-3 (Homo sapiens, UniProt P32745).
T2 construct: expressed in transfected cells
As to the kind of experiment: Inhibition of 125I-Tyr11-SRIF binding to membrane preparations expressing SSTR-3. The following applies: SST-R3, read-out: Percent inhibition of SRIF-14 binding; for inhibition at 1 µM: 10^−6M; for inhibition at 0.1 µM: 10^−7M; for inhibition at 0.01 µM: 10^−8M. The protocol: as §1, with “The somatostatin analogs were tested for their potency in inhibition of the binding of ^125I-Tyr^11-SRIF (based on the method described by Raynor et. al., Molecular Pharmacology, 1993, 43, 838-844) to membrane preparations expressing the transmembranal somatostatin receptors (SSTR-1, 2, 3, 4 or 5). The receptor” for “The receptor”
as §2

In a further series the test system is Opiate receptors. Kind of series: NovaScreen nonspecific binding, Opiate receptors. The following applies: tested at 100 nM; FIG. 2. From the text:
NovaScreen (Hanover, Md.) performed an assessment for nonspecific binding to various G-protein coupled receptor families. Binding studies to Neurokinin, Opiate and Muscarinic receptors were based on a comparison between the native hormone Somatostatin, Ocreotide and PTR 3173.

Series [2] has as its target T3, cloned human somatostatin receptor 3 (human, UniProt P32745 1-418).
T3 construct: whole, on cells; Tested as cell membrane preparations; also called SSTR-3; SSTR3
Kind of series: IC50 for SST-R3 (subtype numbers stand in r6).

Series [3] concerns the target T4, cloned human somatostatin receptor 2 (human, UniProt P30874 1-369).
T4 construct: whole, on cells; Tested as cell membrane preparations; also called SSTR-2; SSTR2
As to the kind of experiment: inhibition of SRIF binding, cloned human SSTR-2; head says nM, values evidently molar. From the text:
(§3) The receptor preparations used for these tests were either from the cloned human receptors selectively and stably expressed in Chinese Hamster Ovary (CHO) cells or from cell lines naturally expressing the SSTRs. […] The binding reactions were filtered, the filters were washed and the bound radioactivity was counted in gamma counter.

Series [4] addresses T5, cloned human somatostatin receptor 1 (human, UniProt P30872 1-391).
T5 construct: whole, on cells; Tested as cell membrane preparations; also called SSTR-1; SSTR1
Kind of series: inhibition of SRIF binding, cloned human SSTR-1; head says nM, values evidently molar.
Excerpt: as §3

For series [5], the target named is T6, cloned human somatostatin receptor 5 (human, UniProt P35346 1-364).
T6 construct: whole, on cells; Tested as cell membrane preparations; also called SSTR-5; SSTR5
Kind of series: inhibition of SRIF binding, cloned human SSTR-5; head says nM, values evidently molar.
Excerpt: as §3

Series [6] has as its target T3, cloned human somatostatin receptor 3. As to the kind of experiment: inhibition of SRIF binding, cloned human SSTR-3; head says nM, values evidently molar.
Excerpt: as §3

Series [7] deals with T5, cloned human somatostatin receptor 1. Kind of series: IC50 for SST-R1 (subtype numbers stand in r6).
Series [8] deals with T4, cloned human somatostatin receptor 2. Kind of series: 125I-Tyr11-SRIF displacement on SSTR membrane preparations, negative control peptide.
Excerpt: as §3, §2

Series [9] has as its target T5, cloned human somatostatin receptor 1. The series is described as above.
Excerpt: as §3, §2

Series [10] has as its target T7, cloned human somatostatin receptor 4 (human, UniProt P31391 1-388).
T7 construct: whole, on cells; Tested as cell membrane preparations; also called SSTR-4; SSTR-R4
Described as above.
Excerpt: as §3, §2

The target in series [11] is T3, cloned human somatostatin receptor 3. The series is described as above.
Excerpt: as §3, §2

In series [12] the target is T6, cloned human somatostatin receptor 5. The series is described as above.
Excerpt: as §3, §2

T1 sequence (P35346 whole entry): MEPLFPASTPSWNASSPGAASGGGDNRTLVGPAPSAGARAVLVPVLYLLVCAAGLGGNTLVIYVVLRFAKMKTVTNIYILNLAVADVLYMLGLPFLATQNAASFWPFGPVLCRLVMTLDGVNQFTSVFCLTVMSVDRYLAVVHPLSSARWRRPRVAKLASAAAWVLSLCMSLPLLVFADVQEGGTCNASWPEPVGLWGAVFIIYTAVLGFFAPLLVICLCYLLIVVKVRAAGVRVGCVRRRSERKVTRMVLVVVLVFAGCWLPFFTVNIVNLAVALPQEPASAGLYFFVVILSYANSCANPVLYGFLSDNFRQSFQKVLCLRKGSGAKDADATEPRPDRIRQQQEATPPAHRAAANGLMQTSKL
T5 sequence (P30872 whole entry): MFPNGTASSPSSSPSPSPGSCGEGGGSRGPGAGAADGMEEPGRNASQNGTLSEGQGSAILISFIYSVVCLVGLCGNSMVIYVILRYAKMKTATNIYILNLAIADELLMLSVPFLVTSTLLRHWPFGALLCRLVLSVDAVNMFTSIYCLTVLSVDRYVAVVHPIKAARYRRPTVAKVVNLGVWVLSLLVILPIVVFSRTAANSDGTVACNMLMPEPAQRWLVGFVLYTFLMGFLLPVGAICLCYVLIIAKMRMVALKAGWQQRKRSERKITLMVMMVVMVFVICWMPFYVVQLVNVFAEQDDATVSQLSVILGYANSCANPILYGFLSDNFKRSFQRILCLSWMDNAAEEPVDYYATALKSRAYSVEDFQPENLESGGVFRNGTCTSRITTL
T2 sequence (P32745 whole entry): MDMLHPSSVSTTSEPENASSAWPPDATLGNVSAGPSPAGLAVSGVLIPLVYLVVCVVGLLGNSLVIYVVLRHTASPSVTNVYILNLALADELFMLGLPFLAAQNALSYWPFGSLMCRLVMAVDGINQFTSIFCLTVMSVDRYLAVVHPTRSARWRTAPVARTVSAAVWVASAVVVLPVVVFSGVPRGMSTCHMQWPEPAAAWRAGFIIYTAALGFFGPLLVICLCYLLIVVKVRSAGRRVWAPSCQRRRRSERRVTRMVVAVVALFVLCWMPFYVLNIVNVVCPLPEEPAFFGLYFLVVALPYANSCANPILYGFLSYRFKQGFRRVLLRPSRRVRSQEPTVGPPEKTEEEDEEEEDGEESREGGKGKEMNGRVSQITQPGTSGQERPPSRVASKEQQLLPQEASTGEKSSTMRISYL
T3 sequence (P32745 whole entry): as above
T6 sequence (P35346 whole entry): as the sequence (P35346 whole entry) above
T4 sequence (P30874 whole entry): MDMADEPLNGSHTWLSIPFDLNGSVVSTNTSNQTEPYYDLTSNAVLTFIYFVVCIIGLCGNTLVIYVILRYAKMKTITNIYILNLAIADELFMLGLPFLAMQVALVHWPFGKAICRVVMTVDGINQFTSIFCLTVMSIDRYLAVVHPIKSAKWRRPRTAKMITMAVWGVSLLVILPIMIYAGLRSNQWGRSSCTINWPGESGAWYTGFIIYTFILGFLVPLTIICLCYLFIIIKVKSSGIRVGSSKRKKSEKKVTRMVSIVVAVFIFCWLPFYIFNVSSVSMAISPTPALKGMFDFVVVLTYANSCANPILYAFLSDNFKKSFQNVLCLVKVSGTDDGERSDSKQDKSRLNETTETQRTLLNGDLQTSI
T7 sequence (P31391 whole entry): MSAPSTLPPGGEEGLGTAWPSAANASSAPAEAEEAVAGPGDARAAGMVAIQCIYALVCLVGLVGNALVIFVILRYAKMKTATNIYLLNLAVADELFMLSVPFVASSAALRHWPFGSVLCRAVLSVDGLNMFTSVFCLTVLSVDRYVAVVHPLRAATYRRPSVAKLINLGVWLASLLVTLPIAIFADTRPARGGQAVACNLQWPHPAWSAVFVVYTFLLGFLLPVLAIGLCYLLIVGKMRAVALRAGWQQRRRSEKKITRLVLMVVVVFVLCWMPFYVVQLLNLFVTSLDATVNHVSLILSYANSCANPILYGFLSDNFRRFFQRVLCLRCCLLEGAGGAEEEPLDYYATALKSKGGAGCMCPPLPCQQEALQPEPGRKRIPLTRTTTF

Regarding `NCCCC[C@@H]1NC(=O)[C@@H](Cc2c[nH]c3ccccc23)NC(=O)[C@H](Cc2ccccc2)NC(=O)[C@H](Cc2ccccc2)NC(=O)[C@H](Cc2ccccc2)NCC(=O)NCCN([C@@H](Cc2ccccc2)C(N)=O)C1=O` [PTR 3113, Phe(C1)-Phe-Phe-(D)Trp-Lys-Phe(N2)-X], the safety result in series [1] is “safe”. Moreover, in the series “in vitro”, the fraction remaining at 1 h amounted to 100%, the amount remaining at 3 h was found to be 100% and the amount remaining at 24 h worked out at 100%. At SSTR-5, the inhibition at 1 µM amounted to 86%, the inhibition at 0.1 µM is 50% and the inhibition at 0.01 µM is 0%. Moreover, on SSTR-3, the inhibition at 1 µM stood at 94%, the inhibition at 0.1 µM worked out at 65% and the inhibition at 0.01 µM was determined as 16%.

Turning to `C[C@H](N)C(=O)NCC(=O)N[C@H]1CSSC[C@@H](C(=O)O)NC(=O)[C@H](CO)NC(=O)[C@H]([C@@H](C)O)NC(=O)[C@H](Cc2ccccc2)NC(=O)[C@H]([C@@H](C)O)NC(=O)[C@H](CCCCN)NC(=O)[C@H](Cc2c[nH]c3ccccc23)NC(=O)[C@H](Cc2ccccc2)NC(=O)[C@H](Cc2ccccc2)NC(=O)[C@H](CC(N)=O)NC(=O)[C@H](CCCCN)NC1=O` [SRIF, H-Ala^1-Gly^2-Cys^3-Lys^4-Asn^5-Phe^6-Phe^7-Trp^8-Lys^9-Thr^10-Phe^11-Thr^12-Ser^13-Cys^14-OH, reference compound], the “binding to Opiate receptors” value in the series on Opiate receptors was “did not bind”. The “Percent of intact molecule after incubation in renal homogenate” value in the series “in vitro” (Time 0 hrs, 37° C.) stood at 100%. In addition, in “in vitro”, the share remaining at 1 h was determined as 5%, the share remaining at 3 h was determined as 0% and the amount remaining at 24 h is 0%.

For `NCCCC[C@H]1NC(=O)[C@@H](Cc2c[nH]c3ccccc23)NC(=O)[C@H](Cc2ccccc2)NC(=O)[C@H](Cc2ccccc2)NC(=O)[C@H](Cc2ccccc2)NCC(=O)NCCN([C@@H](Cc2ccccc2)C(N)=O)C1=O` [PTR 3123, Phe(C1)-Phe-Phe-(D)Trp-(D)Lys-Phe(N2)-X], the safety entry in [1] is on record as “safe”. Moreover, in the series “in vitro”, the fraction remaining at 1 h is 100%, the share remaining at 3 h came out at 100% and the amount remaining at 24 h was 100%. Further, at SSTR-5, the inhibition at 1 µM worked out at 0%, the inhibition at 0.1 µM is 0% and the inhibition at 0.01 µM was found to be 0%. On SSTR-3, the inhibition at 1 µM was determined as 84%, the inhibition at 0.1 µM is 41% and the inhibition at 0.01 µM worked out at 24%.

B1: PTR 3197 (peptide)
peptide: CFW[dW]KTF[Gly(S2)]-NH2
modifications: disulfide 1-8; reading uncertain
notes: Backbone to side chain cyclized octapeptide
As for B1, the IC50 came to 40 nM in series [2]; 10 nM in series [3]; 10 nM in [4]; 10 nM in [5]; 1 nM in series [6]; 1000 nM in series [7].

B2: GnRH (peptide, UniProt P01148 24-33, looked up)
peptide: QHWSYGLRPG
modifications: not fully specified (residue 1, C-terminus)
notes: Negative control sample; also called irrelevant peptides, such as GnRH
For B2, the binding result in series [8], in series [9], in [10], in series [11] and in series [12] was “no binding” throughout.

One may read the share remaining as the share of the starting amount still present when the sample was taken. High values mean less turnover, low ones more turnover. What is called inhibition is how much of the control response was suppressed. The IC50 is the concentration that gives 50% inhibition. A lower IC50 goes with greater potency.
